Literature values in patent publication US20200040275A1, “AVIATION FUEL WITH A RENEWABLE OXYGENATE” (Swift Fuels, LLC, priority 2014, published 2020).

How the values were obtained:
[1] = SDS data from third-party compliance reports

| Structure (SMILES) | LD50 (rat, oral) (rat) [mg/kg] | OSHA Hazards [1] | water solubility [g/100 g] |
| --- | --- | --- | --- |
| CC(C)c1ccc(N)cc1 (single isomer, unassigned) [Cumidine, 4-isopropylaniline] | 757 | Irritant. Causes respiratory | – |
| CCOC(C)(C)C [ETBE, ethyl tert-butyl ether] | – | Irritant | 1.2 |
| Cc1cccc(N)c1 [m-Toluidine] | – | Toxic. Causes cyanosis. | – |
